{"source": "paper PMC4129108", "about": "“The natural triterpene 3β,6β,16β-trihydroxy-lup-20(29)-ene obtained from the flowers of Combretum leprosum induces apoptosis in MCF-7 breast cancer cells” (BMC Complementary and Alternative Medicine, 2014)", "key": {"[1]": {"test_system": "S. cerevisiae EG118 (sod1Δ)", "test": "Yeast survival assay, EG118 (sod1Δ)", "type": "cell-based, Saccharomyces cerevisiae", "conditions": "for survival (percentage in relation to negative control): STAT cells, 1 h in PBS 30°C", "procedure": "(§1) Media, solutions and buffers were prepared according to Burke et al.. YPD medium (0.5% yeast extract, 2% peptone, 2% glucose) was used for routine growth. Synthetic medium SC (0.67% yeast nitrogen base, 0.1% ammonium sulfate, 2% glucose) supplemented with the appropriate amino acids and bases ([…]) was used for the detection of mutations.\n(§2) Stationary phase (STAT) cultures were obtained by inoculation of a single colony into liquid YPD. We chose to work in the stationary phase of growth because this resembles most cells of multicellular organisms in important aspects: (i) most energy comes from mitochondrial respiration; (ii) the cells have left the active cell cycle and have entered the Go phase; and (iii) damage accumulates over time.\n(§3) STAT cells (1 × 10^8 cells/mL) were exposed to TTHL (10–500 μg/mL) and incubated under growth conditions for 1 h in PBS at 30°C. Cells were then washed and treated with H2O2 (5 mM) in PBS for another hour. Suitable aliquots were plated in triplicate on solid YPD (2–3 days, 30°C) and colony-forming units were counted. Sensitivity was expressed as a percentage of survival in relation to the negative control (solvent)."}, "[2]": {"test_system": "intracellular ROS in MCF-7 cells", "test": "ROS detection by flow cytometry (H2DCFDA)", "type": "cell-based, human", "procedure": "Cells (2 × 10^5 cells/mL) were seeded on 6-well tissue culture plates, and grown for 1 day up to 70–80% confluence before treatment with the test substance. The TTHL was added to medium with FBS to obtain the different concentrations, and cells were treated at 37°C for 24 h in humidified atmosphere containing 5% CO2.\nLevels of intracellular ROS were estimated following treatment with TTHL using 2′,7′-dichlorofluorescein diacetate (H2DCFDA, Sigma) as a fluorescent probe. Detection of oxidative stress was done by incubating the cells with 20 μM of H2DCFDA for 20 min at 37°C. Cells were then detached by trypsinization and washed twice with PBS. After filtration through cell strainer cap, cells were analyzed using a FACS Calibur flow cytometer with CellQuest software in accordance with Bass et al.. A total of 10,000 events were measured per sample. DCF fluorescence intensity was shown in arbitrary units."}, "[3]": {"test_system": "S. cerevisiae EG103 (SOD-WT)", "test": "Yeast survival assay, EG103 (SOD-WT)", "type": "cell-based, Saccharomyces cerevisiae", "conditions": "STAT cells, 1 h in PBS 30°C", "procedure": "as §1, §2, §3"}, "[4]": {"test_system": "CACO-2 (colorectal adenocarcinoma)", "test": "XTT cell viability assay, CACO-2", "type": "cell-based, human", "conditions": "for IC50: Homo sapiens, XTT", "procedure": "The human cell lines MCF-7 (breast adenocarcinoma), HepG2 (hepatoma), T24 (bladder cancer), CACO-2 (colorectal adenocarcinoma) and MRC5 (lung normal fibroblast) were obtained from the Rio de Janeiro Cell Bank (Rio de Janeiro, RJ, Brazil). The HCT116 cell (colorectal carcinoma), and HT29 cell (colorectal adenocarcinoma) were kindly provided by Dr. Annette K. Larsen (Institut National de la Santé et de la Recherche Médicale - INSERM, Paris, França). All cell lines except MCF-7 were grown in DMEM supplemented with 10% or 20% (for CACO-2) FBS, 100 units.mL^-1 penicillin and 100 μg.mL^-1 streptomycin at 37°C in a humidified atmosphere of 5% CO2. MCF-7 cells were maintained in RPMI-1640 supplemented with 20% FBS at the same conditions described above.\nThe cytotoxic potential of the TTHL was evaluated by the XTT assay in human tumor cell lines as well as in MRC5 normal fibroblasts. Cells (1 × 10^4 cells) were seeded on 96-well plates in growth medium and incubated overnight. Afterwards, TTHL (0.5, 1.0, 2.5, 5.0, and 10 μg/mL) was added to each well and incubated for 24, 48, 72, and 120 h. Mitoxantrone, a cytostatic anthracenedione that intercalates in DNA and increases the incidence of double-strand breaks by stabilizing the cleavable complex of topoisomerase II and DNA, was used as positive control. At the end of each treatment, cell viability was assessed according to the manufacturer’s instructions. Briefly, after discarding the medium, 1 mL of XTT labeling mixture was added to the cells and incubated for 2 h at 37°C. Absorbance was measured with a SpectraMax reader (Bio-Rad, USA) at a test wavelength of 492 nm (A492) and a reference wavelength of 690 nm (A690). The final result corresponds to A492-A690. The absorbance of negative control cells was set as 100% viability, and the values for treated cells were calculated as a percentage of the control.\nThe IC20, IC50, and IC80 values and their 95% confidence intervals (CI 95%) were obtained by nonlinear regression using GraphPad Prism v5 program (Intuitive Software for Science, San Diego, CA, USA). Selective index (SI) was calculated by IC50 in MRC5 cells/IC50 in tumoral cells. All experiments were independently repeated at least three times, with triplicate samples for each treatment. Results are expressed as means ± standard deviation (SD). Data were analyzed by one-way analysis of variance (ANOVA), and means were compared using Tukey test, with P ≤ 0.05 considered as statistically significant."}}, "data": [{"smiles": "C=C(C)[C@@H]1CC[C@@]2(C)[C@H]1[C@H]1CC[C@@H]3[C@@]4(C)CC[C@H](O)C(C)(C)[C@@H]4[C@H](O)C[C@@]3(C)[C@]1(C)C[C@@H]2O", "note": "[TTHL, 3β,6β,16β-trihydroxy-lup-20(29)-ene]", "values": [{"measurement": "survival (percentage in relation to negative control)", "setting": "[1]; TTHL 10 μg/mL", "value": "92.60 ± 2.83", "unit": "%"}, {"measurement": "survival (percentage in relation to negative control)", "setting": "[1]; TTHL 50 μg/mL", "value": "89.30 ± 0.85", "unit": "%"}, {"measurement": "survival (percentage in relation to negative control)", "setting": "[1]; TTHL 100 μg/mL", "value": "75.65 ± 4.60", "unit": "%"}, {"measurement": "survival (percentage in relation to negative control)", "setting": "[1]; TTHL 500 μg/mL", "value": "69.30 ± 3.68", "unit": "%"}, {"measurement": "sensitivity of the strain to TTHL (in words)", "setting": "[1]; deficient in superoxide dismutase", "value": "hypersensitive"}, {"measurement": "increase in intracellular ROS production", "setting": "[2]; MCF-7, 24 h treatment at IC50", "value": 49, "unit": "%"}, {"measurement": "increase in intracellular ROS production", "setting": "[2]; MCF-7, 24 h treatment at IC80", "value": 64, "unit": "%"}, {"measurement": "survival (percentage in relation to negative control)", "setting": "[3]; TTHL 10 μg/mL", "value": "100 ± 2.83", "unit": "%"}, {"measurement": "survival (percentage in relation to negative control)", "setting": "[3]; TTHL 50 μg/mL", "value": "87.65 ± 5.16", "unit": "%"}, {"measurement": "survival (percentage in relation to negative control)", "setting": "[3]; TTHL 100 μg/mL", "value": "79.45 ± 1.91", "unit": "%"}, {"measurement": "survival (percentage in relation to negative control)", "setting": "[3]; TTHL 500 μg/mL", "value": "67.65 ± 3.04", "unit": "%"}, {"measurement": "IC50", "setting": "[4]; CACO-2, 24 h treatment", "value": "8.55 ± 0.35", "unit": "µg/mL"}, {"measurement": "IC50", "setting": "[4]; CACO-2, 48 h treatment", "value": "7.9 ± 0.28", "unit": "µg/mL"}, {"measurement": "IC50", "setting": "[4]; CACO-2, 72 h treatment", "value": "6.35 ± 0.35", "unit": "µg/mL"}, {"measurement": "IC50", "setting": "[4]; CACO-2, 120 h treatment", "value": "5 ± 0.19", "unit": "µg/mL"}, {"measurement": "Selectivity index (SI)", "setting": "[4]; IC50 in MRC5 cells/IC50 in CACO-2, 24 h", "value": "MR (MR: more resistant in tumoral cells)"}, {"measurement": "Selectivity index (SI)", "setting": "[4]; IC50 in MRC5 cells/IC50 in CACO-2, 48 h", "value": "MR (MR: more resistant in tumoral cells)"}, {"measurement": "Selectivity index (SI)", "setting": "[4]; IC50 in MRC5 cells/IC50 in CACO-2, 72 h", "value": 1, "unit": "X"}, {"measurement": "Selectivity index (SI)", "setting": "[4]; IC50 in MRC5 cells/IC50 in CACO-2, 120 h", "value": 1, "unit": "X"}]}]}
